# Experimental data as given in patent US12324447B2, “Animal feed compositions and uses thereof” (priority 2015, dated 2025).
# Entries after “also recorded” stand apart in the source; their conditions may differ. Read-outs that look alike come from different tables or passages of the source. Marks after values point to notes of the source that are not given here.
# What was measured:
# [1] = system: Clostridium perfringens DSM756; format: cell-based; settings: for Diameter of clearing zone (mm): lysozymes 100 μg/ml, Bacitracin zinc salt 50 μg/ml; for Diameter of clearing zone (mm), bracketed with *: Incomplete inhibition of growth visible after MTT colouring: lysozyme 100 μg/ml; for Antimicrobial activity against Clostridium perfringens (in words): RDA
# [2] = In vivo piglet trial (growth performance); parameters: species or system weaned piglets (Large-White x Redon); settings: for ADFI (g/d), Mean / ADWG (g/d), Mean / FCR, Mean: SEQ ID NO: 257 50 mg/kg feed, VevoVital 5000 mg/kg feed; for ADFI, % relative NC / ADWG, % relative NC / FCR, % relative NC: relative to negative control
# [3] = In vivo broiler trial (growth performance)
# [4] = system: Exiguobacterium undea (DSM14481); experiment: Lysozyme activity turbidity assay (optical density drop at 540 nm); format: biochemical, Exiguobacterium undae; settings: for Lysozyme activity against Exiguobacterium undea (in words): OD drop assay
# [5] = system: Micrococcus lysodeikticus ATTC No. 4698; experiment: as above; settings: for Lysozyme activity against Micrococcus lysodeikticus (in words): OD drop assay
# [6] = Finisher (d 36-42), SEQ ID NO: 257 25 mg/kg feed, Avilamycin 10 mg/kg
# [7] = Finisher (d 36-42), relative to unsupplemented control
# [8] = Grower (d 22-36), SEQ ID NO: 257 25 mg/kg feed, Avilamycin 10 mg/kg
# [9] = Grower (d 22-36), relative to unsupplemented control
# [10] = Starter (d 1-22), SEQ ID NO: 257 25 mg/kg feed, Avilamycin 10 mg/kg
# [11] = Starter (d 1-22), relative to unsupplemented control
# [12] = Whole period (day 1 to day 42), SEQ ID NO: 257 25 mg/kg feed, Avilamycin 10 mg/kg
# [13] = Whole period, relative to unsupplemented control
molecule,measurement,setting,value
Bacitracin zinc salt [reference compound],Diameter of clearing zone (mm),"[1]; Experiment 1, 1/2 MHB pH 6",11 mm
same,Diameter of clearing zone (mm),"[1]; Experiment 1, 1/10 MHB pH 7",22 mm
same,Diameter of clearing zone (mm),"[1]; Experiment 2, 1/10 MHB pH 7",18 mm
"O=C(O)c1ccccc1 [VevoVital, benzoic acid]","ADFI (g/d), Mean",[2]; day 0-14,355 g/day
same,"ADWG (g/d), Mean",[2]; day 0-14,304 g/day
same,"FCR, Mean",[2]; day 0-14,1.168^a
same,"ADFI, % relative NC",[2]; day 0-14,98.6%
same,"ADWG, % relative NC",[2]; day 0-14,104.8%
same,"FCR, % relative NC",[2]; day 0-14,94.2%
same,"ADFI (g/d), Mean",[2]; day 0-42,709^ab g/d
same,"ADWG (g/d), Mean",[2]; day 0-42,526 g/day
same,"FCR, Mean",[2]; day 0-42,1.342^a
same,"ADFI, % relative NC",[2]; day 0-42,96.6%
same,"ADWG, % relative NC",[2]; day 0-42,105.4%
same,"FCR, % relative NC",[2]; day 0-42,90.4%
same,"ADFI (g/d), Mean",[2]; day 14-42,886^ab g/d
same,"ADWG (g/d), Mean",[2]; day 14-42,638 g/day
same,"FCR, Mean",[2]; day 14-42,1.398^a
same,"ADFI, % relative NC",[2]; day 14-42,95.3%
same,"ADWG, % relative NC",[2]; day 14-42,105.8%
same,"FCR, % relative NC",[2]; day 14-42,90.5%
same,Improvement on FCR compared to the negative control,"[2]; overall period (day 0 to day 42), lysozyme 50 mg/kg, VevoVital 5000 mg/kg",9.6%
same,Improvement of ADWG compared to NC,[2]; pre-starter period (days 0-14),4.8%
same,Improvement of ADWG compared to NC,[2]; starter period (days 14-42),5.8%
same,Improvement to FCR compared to NC,"[2]; starter period, from day 15 to day 42, SEQ ID NO: 257 50 mg/kg, VevoVital (PC)",9.5%
same,Improvement of ADWG compared to NC,[2]; whole period (day 0 to day 42),5.4%
"COC[C@H]1O[C@@H](OC2OC[C@@H]3O[C@]4(O[C@H]3[C@H]2OC(=O)C(C)C)O[C@H](C)[C@@](O)(C(C)=O)[C@@H]2OCO[C@H]24)[C@@H](OC)[C@@H](O)[C@@H]1O[C@@H]1O[C@H](C)[C@H](OC)[C@H](O[C@H]2C[C@@]3(C)OC4(C[C@@H](O)[C@H](O[C@H]5C[C@@H](O)[C@H](OC(=O)c6c(C)c(Cl)c(O)c(Cl)c6OC)[C@@H](C)O5)[C@@H](C)O4)O[C@@H]3[C@@H](C)O2)[C@H]1O (some centres unmarked) [Avilamycin, reference compound]",FCR,[3]; [6],1.982
same,Feed intake (g/b),[3]; [6],1460 g/b
same,Weight gain (g/b),[3]; [6],738 g/b
same,"FCR, Relative to C (%)",[3]; [7],101.1%
same,"Feed intake, Relative to C (%)",[3]; [7],98.2%
same,"Weight gain, Relative to C (%)",[3]; [7],97.0%
same,FCR,[3]; [8],1.683
same,Feed intake (g/b),[3]; [8],2242 g/b
same,Weight gain (g/b),[3]; [8],1334 g/b
same,"FCR, Relative to C (%)",[3]; [9],97.7%
same,"Feed intake, Relative to C (%)",[3]; [9],98.1%
same,"Weight gain, Relative to C (%)",[3]; [9],100.4%
same,FCR,[3]; [10],1.452
same,Feed intake (g/b),[3]; [10],1593 g/b
same,Weight gain (g/b),[3]; [10],1102 g/b
same,"FCR, Relative to C (%)",[3]; [11],100.8%
same,"Feed intake, Relative to C (%)",[3]; [11],101.0%
same,"Weight gain, Relative to C (%)",[3]; [11],100.6%
same,EPEF,[3]; [12],397
same,FCR,[3]; [12],1.669
same,Feed intake (g/b),[3]; [12],5312 g/b
same,Motality,[3]; [12],12.5
same,Weight gain (g/b),[3]; [12],3184 g/b
same,"EPEF, Relative to C (%)",[3]; [13],95.0%
same,"FCR, Relative to C (%)",[3]; [13],99.3%
same,"Feed intake, Relative to C (%)",[3]; [13],99.3%
same,"Weight gain, Relative to C (%)",[3]; [13],99.9%
same,EPEF worse by (compared to NC diet),"[3]; whole period, Avilamycin 10 mg/kg",5.0%
same,FCR improvement compared to NC diet,"[3]; whole period, GH24 lysozyme 25 mg/kg, Avilamycin 10 mg/kg",0.7%
"SEQ ID NO: 294: mature GH24 lysozyme from Chaetomium sp. ZY287 (protein, listed as Chaetomium sp., mat_peptide (1)..(249), mature GH24 lysozyme from Chaetomium sp; ZY287) YKISGSSVNCRSGPGTNYPVKKTYANGDEVTISCQTTGTNVEGNNIWDKTQHGCYVADKYVKTGKDGFVTKKCGSSGGGGGGKTCKAPKSNAATVDLIASFEGFRANIYTDATGHPTVGYGHMCTKSRCAEVKYKIPLSKADGKKLLADDMAKFEKCIKEMLNSKAKLNLNQYGALVSWSFNVGCGAAKGSQLVSRLNKGENPNTVLSNELPKWVHGNGKVLPGLVRRRNAEIALAKKSGSGAALPVKC",Lysozyme activity against Exiguobacterium undea (in words),[4],good activity
same,Lysozyme Activity against Exiguobacterium undae as measured by Optical Density Drop,[4]; assay pH 7 (Table 14),+++
same,Lysozyme activity against Micrococcus lysodeikticus (in words),[5],good activity
same,Lysozyme Activity against Micrococcus lysodeikticus as measured by Optical Density Drop,[5]; assay pH 7 (Table 14),+++
"SEQ ID NO: 297: mature GH24 lysozyme from Mortierella sp. ZY002 (protein, listed as Mortierella sp., mat_peptide (1)..(245), mature GH24 lysozyme from Mortierella sp; ZY002) YPITGADALHCRSGPGTSYPIQKTLRPPQDIKIQCQEPGTVVNGVSLWDKTQFGCYVSDYYVKTGTGNYVAPRCNSGGSSSACTGLNDAGINLIKEFEGFVPRPAPDPIGLPTVGYGHLCQTKGCGEVKYSFPLTTATATALLKDDLPKYTSCLAKALNGKPKLNKNQWAALASWTFNVGCGNMKSSSLITRLNAGQNPNTVATEELPKWKLAGGKVLPGLVRRRAAEVKLFKTANSSQGYPKCA",Lysozyme activity against Exiguobacterium undea (in words),[4],good activity
same,Lysozyme Activity against Exiguobacterium undae as measured by Optical Density Drop,[4]; assay pH 6 (Table 14),+++
same,Lysozyme activity against Micrococcus lysodeikticus (in words),[5],good activity
same,Lysozyme Activity against Micrococcus lysodeikticus as measured by Optical Density Drop,[5]; assay pH 6 (Table 14),++++
"SEQ ID NO: 291: mature GH24 lysozyme from Trichophaea minuta (protein, listed as Trichophaea minuta, mat_peptide (1)..(245), mature GH24 lysozyme from Trichophaea minuta) YPAKVDLRCRSSPSTSASVVRTYSKGSEIQISCQTTGTSVEGSNVWDKTQHGCYVADYYVKTGHSGIFTTKCGSSSGGGSCKPPPINAATVALIKEFEGFVAKPAPDPIGLPTVGYGHLCKTKGCKEVPYSFPLTQTTATKLLQSDIKTFTSCVSNYVKDSVKLNDNQFGALSSWAFNVGCGNIQTSSLIKRLNAGENPNTVAAQELPKWKYAGGKVLPGLVRRRKAEVALFKKPSSVQAHPPKC",Lysozyme activity against Exiguobacterium undea (in words),[4],good activity
same,Lysozyme Activity against Exiguobacterium undae as measured by Optical Density Drop,[4]; assay pH 6 (Table 14),++++
same,Lysozyme activity against Micrococcus lysodeikticus (in words),[5],good activity
same,Lysozyme Activity against Micrococcus lysodeikticus as measured by Optical Density Drop,[5]; assay pH 6 (Table 14),++++
SEQ ID NO: 270: mature GH24 catalytic domain from Trichophaea saccata with QCVG-linker (SEQ ID NO: 257 lacking the LED) (protein) QCVGCKPPPINAATVALIKEFEGFVPKPAPDPIGLPTVGYGHLCKTKGCKEVPYSFPLTQETATKLLQSDIKTFTSCVSNYVKDSVKLNDNQYGALASWAFNVGCGNVQTSSLIKRLNAGENPNTVAAQELPKWKYAGGKVMPGLVRRRNAEVALFKKPSSVQAHPPKC,Diameter of clearing zone (mm),"[1]; Experiment 1, 1/2 MHB pH 6",0 mm
same,"Diameter of clearing zone (mm), bracketed with *: Incomplete inhibition of growth visible after MTT colouring","[1]; Experiment 1, 1/10 MHB pH 7",(8)* mm
same,"Diameter of clearing zone (mm), bracketed with *: Incomplete inhibition of growth visible after MTT colouring","[1]; Experiment 2, 1/10 MHB pH 7",(5)* mm
same,Antimicrobial activity against Clostridium perfringens (in words),"[1]; 50% MHB, pH 6",no activity
same,Lysozyme activity against Micrococcus lysodeikticus (in words),[5],no lysozyme activity
same,Lysozyme Activity against Micrococcus lysodeikticus as measured by Optical Density Drop,[5]; assay pH 6,−
SEQ ID NO: 269: amino acid sequence deduced from SEQ ID NO: 268: GH24 catalytic domain with QCVG-linker and signal peptide; precursor of SEQ ID NO: 270 (protein) MAKVSTLTIALLTMASQARAQCVGCKPPPINAATVALIKEFEGFVPKPAPDPIGLPTVGYGHLCKTKGCKEVPYSFPLTQETATKLLQSDIKTFTSCVSNYVKDSVKLNDNQYGALASWAFNVGCGNVQTSSLIKRLNAGENPNTVAAQELPKWKYAGGKVMPGLVRRRNAEVALFKKPSSVQAHPPKC,Antimicrobial activity against Clostridium perfringens (in words),"[1]; 1/10 MHB, pH 7",incomplete inhibition of growth
same,Antimicrobial activity against Clostridium perfringens (in words),"[1]; 50% MHB, pH 6",no inhibition of growth
"SEQ ID NO: 300: mature GH24 lysozyme from Metarhizium sp. XZ2431 (protein, listed as Metarhizium sp., mat_peptide (1)..(247), mature GH24 lysozyme from Metarhizium sp; XZ2431) YPVSADSLNCRAEPNTSSAIKTTYKKGEDVKISCQTEGPSINGNTIWDKTQDGCYVADYYVKTGSSGYVTGKCGGSSPPSGSGFCKTVNKAGLDLITKWEGFVSSPRGDPIGLPTVGYGHLCQKKGCAEVKYKFPLTKATALQLLNDDLPKYTGCLGKLLNSKVKLNDNQWAALTSWVFNVGCGNAQSSSLVRRLNNGENPNTVAPSELPKWKMAGGKVLEGLVKRRADEVRLFKVSSSKGAFPKCQ",Lysozyme activity against Exiguobacterium undea (in words),[4],good activity
same,Lysozyme Activity against Exiguobacterium undae as measured by Optical Density Drop,[4]; assay pH 6 (Table 14),+++
same,Lysozyme activity against Micrococcus lysodeikticus (in words),[5],good activity
same,Lysozyme Activity against Micrococcus lysodeikticus as measured by Optical Density Drop,[5]; assay pH 6 (Table 14),+++
"SEQ ID NO: 279: mature GH24 lysozyme from Acremonium alcalophilum, mature sequence of SEQ ID NO: 4 of WO 2013/076259; no LED (protein, listed as Acremonium alcalophilum, mat_peptide (1)..(166), no LED) QCVGPEVNSASINLIKEFEGWYPDIYVDPAGYPTVGYGHLCSDSSCSDVSYSIPLSEADGENLLRDDITNFQNCITWQTASSVVLNANQYGALVSWAFNVGCGASESSSLIARLNAGEDPNTVAEEELPRWNQGGGQVLPGLVRRRAAEVELHQIPTDVAALPACS",Diameter of clearing zone (mm),"[1]; Experiment 1, 1/2 MHB pH 6",0 mm
same,Diameter of clearing zone (mm),"[1]; Experiment 1, 1/10 MHB pH 7",0 mm
same,Diameter of clearing zone (mm),"[1]; Experiment 2, 1/10 MHB pH 7",0 mm
same,Antimicrobial activity against Clostridium perfringens (in words),[1]; tested conditions (1/10 MHB pH 7 and 1/2 MHB pH 6),do not have any activity; also recorded: did not inhibit growth
